Test results from patent US20210386367A1, “DEVICES AND SYSTEMS FOR GASTROINTESTINAL MICROBIOME DETECTION AND MANIPULATION” (Progenity, Inc., priority 2018, published 2021).
In brackets after ≈: the same amount, converted by molar mass. Where two headings read alike, the source gives them in different places.

Key:
Assay type in all cases: cell-based
Streptococcus spp. = experiment: Broth microdilution MIC, 54 clinical isolates; details: for Mode: modal MIC
Procedure: (§1) Minimal inhibitory concentration (MIC) values were determined by broth microdilution or agar dilution in accordance with guidelines from the Clinical and Laboratory Standards Institute (CLSI; (1) “Methods for Dilution Antimicrobial Susceptibility Tests for Bacteria That Grow Aerobically; Approved Standard; 11th ed.” CLSI standard M07-A11, 2018; (2) “Performance Standards for Antimicrobial Susceptibility Testing; Twenty-Eighth Informational Supplement,” CLSI document M100-S28, 2018; and (3) “Methods for Antimicrobial Susceptibility Testing of Anaerobic Bacteria; Approved Standard—Eighth Edition,” CLSI document M11-A8, 2012).
(§2) Tested aerobically by broth microdilution: • Escherichia coli, n=50 • Klebsiella spp., n=50 • Pseudomonas aeruginosa, n=50 • Streptococcus spp., n=50 • Staphylococcus aureus, n=50 • Enterococcus faecalis, n=50 • Enterobacter aerogenes, n=50 • Proteus mirabilis, n=50
(§3) Broth microdilution testing of aerobic bacteria was conducted in cation-adjusted Mueller Hinton broth (MHBII). For testing streptococci, lysed horse blood (LHB) was added to MHBII broth at a final concentration of 3%. Where LHB was used, it was added after filtering.
(§4) Broth microdilution susceptibility testing in 96-well microplates was conducted in accordance with CLSI methods (1) and (2). Automated liquid handlers were used to conduct serial dilutions and liquid transfers, including the Multidrop 384 (Labsystems, Helsinki, Finland), Biomek 2000, and the Biomek FX (Beckman Coulter, Fullerton, Calif.). All wells in columns 2 through 12 of a standard 96-well microdilution plate (Costar 3795) were filled with 150 μL of the appropriate diluent. Then, 300 μL of the test agents were added to the wells of column 1 of the plates at 100× the highest final concentration to be tested. Serial two-fold dilutions were made across the rows through column 11 using the Biomek 2000. The wells of column 12 contained no drug and served as the growth control wells. This plate served as the “mother plate” from which MIC assay plates or “daughter plates” were made.
(§5) The daughter plates were loaded with 190 μL per well of the appropriate medium using the Multidrop 384. The daughter plates were created using the Biomek FX which transferred 2 μL of drug solution from each well of a mother plate to each corresponding well of the daughter plate in a single step. A standardized inoculum of each test organism was prepared per CLSI methods (1) to equal a 0.5 McFarland standard, followed by a dilution of 1:20 for aerobes and 1:10 for anaerobes. The plates were then inoculated with 10 μL of the diluted inoculum using the Biomek 2000 from low to high drug concentration, resulting in a final concentration of approximately 5×10^5 CFU/mL per well. An un-inoculated plate was incubated in parallel for each medium for the purpose of assessing solubility of the drug in the test media.
(§6) Inoculated plates were stacked 3 or 4 high, covered with a sterile lid on the top plate, placed into boxes with CO2 planchets (streptococci) or plastic bags (all other isolates). Plates were incubated at 35° C. for 16-24 hr in ambient air for aerobes or for 42-48 hr in the anaerobic environment of the Bactron II anaerobe chamber (Sheldon Manufacturing Co.; Cornelius, Oreg.). Following incubation, the microplates were removed from the incubator and viewed from the bottom using a plate viewer. The MIC values were read and recorded as the lowest concentration of drug that inhibited visible growth of the organism as per CLSI methods (1) and (2).

Streptococcus agalactiae = experiment: Broth microdilution MIC, 20 clinical isolates; details: for Mode: modal MIC
Procedure: as §1, §2, §3, §4, §5, §6

[1] = system: Streptococcus spp. clinical isolates; experiment: MIC distribution against clinical isolates; details: 54 Streptococcus spp. isolates
From the text: (n=19 S. pyogenes, n=20 S. agalactiae and n=20 Viridans group Streptococcus) clinical isolates (μg/mL).
(§7) As used herein, “minimum inhibitory concentration” or “MIC” refers to the lowest concentration of an antimicrobial agent, for example, an antimicrobial agent as described herein, required to inhibit the growth of an organism. […] “MIC90” represents the MIC value at which ≥90% of the strains within a test population are inhibited; the 90th percentile.
(§8) Many susceptibility testing methods are known in the art and can be used as described herein (see, e.g., Jorgensen and Ferraro (2009) Clinical Infectious Diseases 49:1749-1755; and Maurer et al. (2017) Infectious Disease Reports 9:6839; the entire contents of each of the foregoing are incorporated herein by reference). For example, antimicrobial susceptibility can be determined using conventional culture based methods such as the broth or agar dilution test. In these dilution tests, the bacterial isolate of interest is inoculated onto different media that include serial dilutions of an antimicrobial agent, and incubated under appropriate conditions (e.g., overnight at 37° C.) to allow for growth to occur. Following the incubation period, the media is examined to determine bacterial growth. The lowest concentration of antibiotic that prevents growth represents the minimal inhibitory concentration (MIC). Broth dilution tests can be miniaturized and mechanized allowing for reproducibility and high throughput.

[2] = system: Streptococcus pyogenes clinical isolates; experiment: MIC distribution against clinical isolates
From the text: as §7, §8

[3] = system: Viridans group Streptococci clinical isolates; experiment: MIC distribution against clinical isolates; details: 15 Viridans group Streptococci isolates
From the text: as §7, §8

Streptococcus pyogenes = experiment: Broth microdilution MIC, 19 clinical isolates
Procedure: as §1, §2, §3, §4, §5, §6

Enterococcus faecalis = experiment: Broth microdilution MIC, 50 clinical isolates
Procedure: as §1, §2, §3, §4, §5, §6

Staphylococcus aureus = experiment: Broth microdilution MIC, 50 clinical isolates (28 MRSA)
Procedure: as §1, §2, §3, §4, §5, §6

[4] = 54 Streptococcus spp. clinical isolates
[5] = 54 Streptococcus spp. clinical isolates, MXF by FDA breakpoints
[6] = 20 Streptococcus agalactiae clinical isolates
[7] = MIC 0.008 μg/mL, 19 S. pyogenes isolates
[8] = MIC ≤0.004 μg/mL, 19 S. pyogenes isolates

Penicillin
MIC50 (Streptococcus spp.; [4]): 0.03 µg/mL | MIC90 (Streptococcus spp.; [4]): 0.25 µg/mL | MIC range (Streptococcus spp.; [4]): ≤0.004-1^ μg/mL | % I (Streptococcus spp.; [5]): 11% ^ | % S (Streptococcus spp.; [5]): 89% | Mode (Streptococcus spp.; [4]): 0.03 µg/mL | MIC50 (Streptococcus agalactiae; [6]): 0.03 µg/mL | MIC90 (Streptococcus agalactiae; [6]): 0.03 µg/mL | MIC range (Streptococcus agalactiae; [6]): 0.015 to 0.06 µg/mL | % S (Streptococcus agalactiae; 20 Streptococcus agalactiae clinical isolates, MXF by FDA breakpoints): 100% | Mode (Streptococcus agalactiae; [6]): 0.03 µg/mL | Cumulative percentage of isolates inhibited at MIC ([1]; MIC 0.008 μg/mL): 35.2% | Number of test isolates at MIC ([1]; MIC 0.008 μg/mL): 9 | Cumulative percentage of isolates inhibited at MIC ([1]; MIC 1 μg/mL): 100.0% | Cumulative percentage of isolates inhibited at MIC ([1]; MIC ≤0.004 μg/mL): 18.5% | Number of test isolates at MIC ([1]; MIC ≤0.004 μg/mL): 10 | Cumulative percentage of isolates inhibited at MIC [2]: 100.0% | Number of test isolates at MIC [2]: 1 | Cumulative percentage of isolates inhibited at MIC [2, 7]: 94.7% | Number of test isolates at MIC [2, 7]: 8 | Cumulative percentage of isolates inhibited at MIC [2, 8]: 52.6% | Number of test isolates at MIC [2, 8]: 10 | Cumulative percentage of isolates inhibited at MIC ([3]; MIC 0.008 μg/mL): 6.7% | Number of test isolates at MIC ([3]; MIC 0.008 μg/mL): 1 | Cumulative percentage of isolates inhibited at MIC ([3]; MIC 1 μg/mL): 100.0% | % S (Streptococcus pyogenes): 100% | MIC50 (Streptococcus pyogenes): <0.004 µg/mL | MIC90 (Streptococcus pyogenes): 0.008 µg/mL | MIC range (Streptococcus pyogenes): ≤0.004-0.03^ μg/mL | Mode (Streptococcus pyogenes): <0.004 µg/mL

CO[C@H]1/C=C/O[C@@]2(C)Oc3c(C)c(O)c4c(O)c(c5c(nc6cc(C)ccn65)c4c3C2=O)NC(=O)/C(C)=C\C=C\[C@H](C)[C@H](O)[C@@H](C)[C@@H](O)[C@@H](C)[C@H](OC(C)=O)[C@@H]1C [rifaximin]
MIC50 (Streptococcus spp.): 0.12 µg/mL (≈ 0.153 µM) | MIC90 (Streptococcus spp.): 0.25 µg/mL (≈ 0.318 µM) | MIC50 (Streptococcus spp.; [4]): 0.12 µg/mL (≈ 0.153 µM) | MIC90 (Streptococcus spp.; [4]): 0.25 µg/mL (≈ 0.318 µM) | MIC range (Streptococcus spp.; [4]): 0.015 to 0.3 µg/mL | Mode (Streptococcus spp.; [4]): 0.12 µg/mL | MIC50 (Streptococcus agalactiae): 0.12 µg/mL (≈ 0.153 µM) | MIC90 (Streptococcus agalactiae): 0.12 µg/mL (≈ 0.153 µM) | MIC50 (Streptococcus agalactiae; [6]): 0.12 µg/mL (≈ 0.153 µM) | MIC90 (Streptococcus agalactiae; [6]): 0.12 µg/mL (≈ 0.153 µM) | MIC range (Streptococcus agalactiae; [6]): 0.12 to 0.25 µg/mL | Mode (Streptococcus agalactiae; [6]): 0.12 µg/mL | MIC50 (Enterococcus faecalis): 2 µg/mL (≈ 2.54 µM) | MIC90 (Enterococcus faecalis): 4 µg/mL (≈ 5.09 µM) | Mode (Enterococcus faecalis): 1 µg/mL | relative activity among drugs tested (Enterococcus faecalis): slightly more active than meropenem | MIC50 (Staphylococcus aureus): 0.015 µg/mL (≈ 0.0191 µM) | MIC90 (Staphylococcus aureus): 0.06 µg/mL (≈ 0.0763 µM) | MIC range (Staphylococcus aureus): 0.008 to 32 µg/mL | Mode (Staphylococcus aureus): 0.015 µg/mL | relative activity among drugs tested (Staphylococcus aureus): most active drug tested | Number of test isolates at MIC ([2]; MIC 0.06 μg/mL, 19 S. pyogenes isolates): 6 | Number of test isolates at MIC ([3]; MIC 0.06 μg/mL): 6 | MIC50 (Streptococcus pyogenes): 0.06 µg/mL (≈ 0.0763 µM) | MIC90 (Streptococcus pyogenes): 0.25 µg/mL (≈ 0.318 µM) | MIC range (Streptococcus pyogenes): 0.015 to 0.25 µg/mL | Mode (Streptococcus pyogenes): 0.06 µg/mL
